Key:
Format in all cases: in vivo
[1] = test system: ABUTH, Velvetleaf, Abutilon theophrasti, Medic.; test: Postemergence herbicidal evaluation (Example 147); details: rating scale 0-9, two to three weeks after treatment
Protocol: (§1) Seedling plants were grown in jiffy flats for about two weeks. The test compounds were dispersed in 80/20 acetone/water mixtures containing 1.0% SUN-IT®II, a methylated seed oil, in sufficient quantities to provide the equivalent of about 0.016 to 0.032 kg per hectare of active compound when applied to the plants through a spray nozzle operating at 40 psi for a predetermined time. After spraying, the plants were placed on greenhouse benches and were cared for in accordance with conventional greenhouse procedures. Approximately two to three weeks after treatment, the seedling plants were examined and rated according to the rating scale (0-9) set forth below. Where more than one test is involved for a given compound, the data are averaged. [table] The scale is based upon a visual observation of plant stand, vigor, malformation, size, chlorosis and overall plant appearance as compared with a control. Plant species employed in these evaluations are reported by header abbreviation, common name and scientific name. [table]

[2] = test system: ALOMY, Blackgrass, Alopecurus myosuroides; test: Postemergence herbicidal evaluation (Example 147); details: rating scale 0-9, two to three weeks after treatment
Protocol: as §1

[3] = test system: AMBEL, Ragweed, Common, Ambrosia artemiisifolia, L.; test: Postemergence herbicidal evaluation (Example 147); details: rating scale 0-9, two to three weeks after treatment
Protocol: as §1

[4] = test system: CHEAL, Lambsquarters, Chenopodium album, L. Common; test: Postemergence herbicidal evaluation (Example 147); details: rating scale 0-9, two to three weeks after treatment
Protocol: as §1

[5] = test system: DIGSA, Crabgrass, (Hairy) L, Digitaria sanguinalis, (L)Scop; test: Postemergence herbicidal evaluation (Example 147); details: rating scale 0-9, two to three weeks after treatment
Protocol: as §1

[6] = test system: ECHCG, Barnyardgrass, Echinochloa crusgalli, (L.)Beau; test: Postemergence herbicidal evaluation (Example 147); details: rating scale 0-9, two to three weeks after treatment
Protocol: as §1

[7] = test system: GLXMA, Soybean, Glycine max, (L.) Merr.; test: Postemergence herbicidal evaluation (Example 147); details: rating scale 0-9, two to three weeks after treatment
Protocol: as §1

[8] = test system: IPOHE, Morningglory, Ivyleaf, Ipomoea hederacea, (L)Jacq.; test: Postemergence herbicidal evaluation (Example 147); details: rating scale 0-9, two to three weeks after treatment
Protocol: as §1

[9] = test system: SETVI, Green foxtail, Setaria viridis, (L.)Beau; test: Postemergence herbicidal evaluation (Example 147); details: rating scale 0-9, two to three weeks after treatment
Protocol: as §1

[10] = test system: TRZAW, Winter wheat, Tritium Aestivum, L. (Winter); test: Postemergence herbicidal evaluation (Example 147); details: rating scale 0-9, two to three weeks after treatment
Protocol: as §1

[11] = test system: ZEAMX, Field corn, Zea mays L.; test: Postemergence herbicidal evaluation (Example 147); details: rating scale 0-9, two to three weeks after treatment
Protocol: as §1

[12] = test system: ABUTH, Velvetleaf, Abutilon theophrasti, Medic.; test: Preemergence herbicidal evaluation (Example 148); details: rating scale 0-9, two to four weeks after treatment
Protocol: (§2) The scale is based upon a visual observation of plant stand, vigor, malformation, size, chlorosis and overall plant appearance as compared with a control.
(§3) The herbicidal activity of the compounds of the present invention was evaluated by the following tests wherein the seeds of a variety of monocotyledonous and dicotyledonous plants were separately mixed with potting soil and planted on top of approximately one inch of soil in separate pint cups. After planting, the cups were sprayed with the selected aqueous acetone solution containing test compound in sufficient quantity to provide the equivalent of about 0.125 to 0.250 kg per hectare of test compound per cup. The treated cups were then placed on greenhouse benches, watered and cared for in accordance with conventional greenhouse procedures. From two to four weeks after treatment, the tests were terminated and each cup was examined and rated according to the rating system provided in Example 94. When more than one test was performed for a given compound, the data were averaged.

[13] = test system: ALOMY, Blackgrass, Alopecurus myosuroides; test: Preemergence herbicidal evaluation (Example 148); details: rating scale 0-9, two to four weeks after treatment
Protocol: as §2, §3

[14] = test system: AMBEL, Ragweed, Common, Ambrosia artemiisifolia, L.; test: Preemergence herbicidal evaluation (Example 148); details: rating scale 0-9, two to four weeks after treatment
Protocol: as §2, §3

[15] = test system: CHEAL, Lambsquarters, Chenopodium album, L. Common; test: Preemergence herbicidal evaluation (Example 148); details: rating scale 0-9, two to four weeks after treatment
Protocol: as §2, §3

[16] = test system: DIGSA, Crabgrass, (Hairy) L, Digitaria sanguinalis, (L)Scop; test: Preemergence herbicidal evaluation (Example 148); details: rating scale 0-9, two to four weeks after treatment
Protocol: as §2, §3

[17] = test system: ECHCG, Barnyardgrass, Echinochloa crusgalli, (L.)Beau; test: Preemergence herbicidal evaluation (Example 148); details: rating scale 0-9, two to four weeks after treatment
Protocol: as §2, §3

[18] = test system: GLXMA, Soybean, Glycine max, (L.) Merr.; test: Preemergence herbicidal evaluation (Example 148); details: rating scale 0-9, two to four weeks after treatment
Protocol: as §2, §3

[19] = test system: IPOHE, Morningglory, Ivyleaf, Ipomoea hederacea, (L)Jacq.; test: Preemergence herbicidal evaluation (Example 148); details: rating scale 0-9, two to four weeks after treatment
Protocol: as §2, §3

[20] = test system: SETVI, Green foxtail, Setaria viridis, (L.)Beau; test: Preemergence herbicidal evaluation (Example 148); details: rating scale 0-9, two to four weeks after treatment
Protocol: as §2, §3

[21] = test system: TRZAW, Winter wheat, Tritium Aestivum, L. (Winter); test: Preemergence herbicidal evaluation (Example 148); details: rating scale 0-9, two to four weeks after treatment
Protocol: as §2, §3

[22] = test system: XANST, Cocklebur, Xanthium strumariam; test: Preemergence herbicidal evaluation (Example 148); details: rating scale 0-9, two to four weeks after treatment
Protocol: as §2, §3

[23] = test system: ZEAMX, Field corn, Zea mays L.; test: Preemergence herbicidal evaluation (Example 148); details: rating scale 0-9, two to four weeks after treatment
Protocol: as §2, §3

[24] = test system: XANST, Cocklebur, Xanthium strumariam; test: Postemergence herbicidal evaluation (Example 147); details: rating scale 0-9, two to three weeks after treatment
Protocol: as §1

C#CCNS(=O)(=O)NC(=O)c1cc(-n2c(=O)cc(C(F)(F)F)n(C)c2=O)c(F)cc1Cl [Example 71]
0.0: Preemergence herbicidal rating ALMOY ([13]; rate 0.125 kg/ha) | Preemergence herbicidal rating ALMOY ([13]; rate 0.25 kg/ha) | Preemergence herbicidal rating DIGSA ([16]; rate 0.125 kg/ha) | Preemergence herbicidal rating ECHCG ([17]; rate 0.125 kg/ha) | Preemergence herbicidal rating GLXMA ([18]; rate 0.125 kg/ha) | Preemergence herbicidal rating SETVI ([20]; rate 0.125 kg/ha) | Preemergence herbicidal rating TRZAW ([21]; rate 0.125 kg/ha) | Preemergence herbicidal rating TRZAW ([21]; rate 0.25 kg/ha) | Preemergence herbicidal rating XANST ([22]; rate 0.125 kg/ha) | Preemergence herbicidal rating ZEAMX ([23]; rate 0.125 kg/ha)
2.0: Postemergence herbicidal rating DIGSA ([5]; rate 0.016 kg/ha) | Postemergence herbicidal rating ECHCG ([6]; rate 0.016 kg/ha) | Preemergence herbicidal rating GLXMA ([18]; rate 0.25 kg/ha) | Preemergence herbicidal rating SETVI ([20]; rate 0.25 kg/ha)
7.0: Preemergence herbicidal rating CHEAL ([15]; rate 0.25 kg/ha) | Preemergence herbicidal rating XANST ([22]; rate 0.25 kg/ha)
6.0: Postemergence herbicidal rating AMBEL ([3]; rate 0.016 kg/ha)
4.5: Postemergence herbicidal rating TRZAW ([10]; rate 0.016 kg/ha) | Postemergence herbicidal rating TRZAW ([10]; rate 0.032 kg/ha)
1.0: Postemergence herbicidal rating ALMOY ([2]; rate 0.016 kg/ha) | Postemergence herbicidal rating ALMOY ([2]; rate 0.032 kg/ha) | Preemergence herbicidal rating ZEAMX ([23]; rate 0.25 kg/ha)
9.0: Postemergence herbicidal rating ABUTH ([1]; rate 0.016 kg/ha) | Postemergence herbicidal rating ABUTH ([1]; rate 0.032 kg/ha) | Postemergence herbicidal rating AMBEL ([3]; rate 0.032 kg/ha) | Postemergence herbicidal rating IPOHE ([8]; rate 0.032 kg/ha) | Preemergence herbicidal rating ABUTH ([12]; rate 0.125 kg/ha) | Preemergence herbicidal rating ABUTH ([12]; rate 0.25 kg/ha) | Preemergence herbicidal rating CHEAL ([15]; rate 0.125 kg/ha) | Preemergence herbicidal rating IPOHE ([19]; rate 0.125 kg/ha) | Preemergence herbicidal rating IPOHE ([19]; rate 0.25 kg/ha)
5.0: Postemergence herbicidal rating CHEAL ([4]; rate 0.016 kg/ha) | Postemergence herbicidal rating CHEAL ([4]; rate 0.032 kg/ha) | Postemergence herbicidal rating SETVI ([9]; rate 0.032 kg/ha)
6.5: Postemergence herbicidal rating ZEAMX ([11]; rate 0.016 kg/ha) | Postemergence herbicidal rating ZEAMX ([11]; rate 0.032 kg/ha)
8.0: Postemergence herbicidal rating GLXMA ([7]; rate 0.016 kg/ha) | Postemergence herbicidal rating GLXMA ([7]; rate 0.032 kg/ha) | Postemergence herbicidal rating IPOHE ([8]; rate 0.016 kg/ha) | Preemergence herbicidal rating AMBEL ([14]; rate 0.125 kg/ha) | Preemergence herbicidal rating AMBEL ([14]; rate 0.25 kg/ha)
3.0: Postemergence herbicidal rating DIGSA ([5]; rate 0.032 kg/ha) | Postemergence herbicidal rating ECHCG ([6]; rate 0.032 kg/ha) | Preemergence herbicidal rating DIGSA ([16]; rate 0.25 kg/ha) | Preemergence herbicidal rating ECHCG ([17]; rate 0.25 kg/ha)
4.0: Postemergence herbicidal rating SETVI ([9]; rate 0.016 kg/ha)

CCN(C)S(=O)(=O)NC(=O)c1cc(-n2c(=O)cc(C(F)(F)F)n(C)c2=O)c(F)cc1Cl [Example 66]
8.0: Postemergence herbicidal rating CHEAL ([4]; rate 0.016 kg/ha) | Postemergence herbicidal rating ECHCG ([6]; rate 0.016 kg/ha) | Postemergence herbicidal rating ECHCG ([6]; rate 0.032 kg/ha) | Postemergence herbicidal rating GLXMA ([7]; rate 0.016 kg/ha) | Postemergence herbicidal rating SETVI ([9]; rate 0.016 kg/ha) | Preemergence herbicidal rating DIGSA ([16]; rate 0.25 kg/ha) | Preemergence herbicidal rating ECHCG ([17]; rate 0.25 kg/ha)
2.0: Postemergence herbicidal rating ALMOY ([2]; rate 0.032 kg/ha) | Preemergence herbicidal rating ALMOY ([13]; rate 0.25 kg/ha) | Preemergence herbicidal rating ZEAMX ([23]; rate 0.25 kg/ha)
0.0: Preemergence herbicidal rating ALMOY ([13]; rate 0.125 kg/ha) | Preemergence herbicidal rating GLXMA ([18]; rate 0.125 kg/ha)
6.5: Postemergence herbicidal rating TRZAW ([10]; rate 0.032 kg/ha)
7.0: Postemergence herbicidal rating ZEAMX ([11]; rate 0.016 kg/ha)
1.0: Postemergence herbicidal rating ALMOY ([2]; rate 0.016 kg/ha) | Preemergence herbicidal rating TRZAW ([21]; rate 0.125 kg/ha) | Preemergence herbicidal rating TRZAW ([21]; rate 0.25 kg/ha) | Preemergence herbicidal rating ZEAMX ([23]; rate 0.125 kg/ha)
6.0: Postemergence herbicidal rating DIGSA ([5]; rate 0.032 kg/ha) | Preemergence herbicidal rating SETVI ([20]; rate 0.25 kg/ha)
7.5: Postemergence herbicidal rating ZEAMX ([11]; rate 0.032 kg/ha)
5.0: Postemergence herbicidal rating DIGSA ([5]; rate 0.016 kg/ha) | Postemergence herbicidal rating TRZAW ([10]; rate 0.016 kg/ha)
9.0: Postemergence herbicidal rating ABUTH ([1]; rate 0.016 kg/ha) | Postemergence herbicidal rating ABUTH ([1]; rate 0.032 kg/ha) | Postemergence herbicidal rating AMBEL ([3]; rate 0.016 kg/ha) | Postemergence herbicidal rating AMBEL ([3]; rate 0.032 kg/ha) | Postemergence herbicidal rating CHEAL ([4]; rate 0.032 kg/ha) | Postemergence herbicidal rating GLXMA ([7]; rate 0.032 kg/ha) | Postemergence herbicidal rating IPOHE ([8]; rate 0.016 kg/ha) | Postemergence herbicidal rating IPOHE ([8]; rate 0.032 kg/ha) | Postemergence herbicidal rating SETVI ([9]; rate 0.032 kg/ha) | Postemergence herbicidal rating XANST ([24]; rate 0.016 kg/ha) | Postemergence herbicidal rating XANST ([24]; rate 0.032 kg/ha) | Preemergence herbicidal rating ABUTH ([12]; rate 0.125 kg/ha) | Preemergence herbicidal rating ABUTH ([12]; rate 0.25 kg/ha) | Preemergence herbicidal rating AMBEL ([14]; rate 0.125 kg/ha) | Preemergence herbicidal rating AMBEL ([14]; rate 0.25 kg/ha) | Preemergence herbicidal rating CHEAL ([15]; rate 0.125 kg/ha) | Preemergence herbicidal rating CHEAL ([15]; rate 0.25 kg/ha) | Preemergence herbicidal rating IPOHE ([19]; rate 0.125 kg/ha) | Preemergence herbicidal rating IPOHE ([19]; rate 0.25 kg/ha)
4.0: Preemergence herbicidal rating DIGSA ([16]; rate 0.125 kg/ha) | Preemergence herbicidal rating ECHCG ([17]; rate 0.125 kg/ha) | Preemergence herbicidal rating SETVI ([20]; rate 0.125 kg/ha)
